US20250213550A1, “COMPOUNDS AND METHODS FOR TREATING INFLAMMATORY BOWEL DISEASE” (Gilead Sciences, Inc., priority 2023, published 2025)
Where two headings read alike, the source gives them in different places.

Test system: LPS-stimulated pERK in monocytes (TPL2 pathway)
Test: Ex vivo LPS-stimulated pERK in monocytes of whole blood after Compound 1 dosing (flow cytometry)
Parameters: species or system human
Details: for inhibition at 75 mg: Homo sapiens, Monocyte, 75 mg QD multiple dose, read-out: pERK Signal, % Inhibition
Description: For Cohorts 1-4, whole blood PD sampling occurred relative to the dose of Compound 1 at the following time points: • Day 1: 0 pre-dose (≤5 min prior to dosing), 1, 2, 3, 4, 8, 12, 24 and 36 hours post-dose
For Cohorts 5-9, whole blood PD sampling occurred relative to the dose of Compound 1 at the following time points: • Day 1: 0 pre-dose (≤5 min prior to dosing), 1, 2, 3, 4, 8, 12, and 24 hours post-dose • Day 10: 0 pre-dose (≤5 min prior to dosing), 1, 2, 3, 4, 8, 12, 24, 36, 48, 72, 96, and 120 hours post-dose
Whole blood PD Samples were stimulated ex vivo with lipopolysaccharide (LPS) or phosphate buffered saline (PBS), and the phosphorylation of extracellular signal-related kinase (pERK) was detected in monocytes by flow cytometry.
Pharmacodynamic changes after single and multiple doses of Compound 1 were also investigated by monitoring, in whole blood samples, stimulated with either lipopolysaccharide (LPS) or PBS for 15 minutes at 37° C. Changes to the phosphorylation of extracellular signal-regulated kinases (pERK) was measured in monocytes by flow cytometry, defined as CD15−CD14+.
Pharmacodynamic parameters for Compound 1 were calculated as percent change in pERK signal relative to Day 1 pre-dose (baseline) for all evaluable participants.
Multiple Ascending Doses: Pharmacodynamic parameters after multiple doses of Compound 1 were also calculated as percent change in pERK signal relative to Day 1 pre-dose (baseline) for all evaluable participants.

## Cn1ccc2c([C@@H](c3cn(C45CC(C4)C5)nn3)N(C(=O)OCOP(=O)(O)O)c3cc(Cl)c4ncc(C#N)c(NCC(C)(C)C)c4c3)cccc2c1=O [Compound 1]
75 mg QD, Day 10, 12 hours post-last dose
  median percent change in pERK relative to baseline: −48.3%
75 mg QD, Day 10, 24 hours post last dose
  median percent change in pERK relative to baseline: −39.8%
75 mg single dose, 3 hours post-dose
  median change in pERK relative to baseline: −86.8%
75 mg single dose, 12 hours post-dose
  median change in pERK relative to baseline: −51.3%
75 mg single dose, Day 1 1 hour, mean (SD)
  pERK Signal, % Inhibition: 56.4 (13.04) %
75 mg single dose, Day 1 1 hour, median
  pERK Signal, % Inhibition: 62.9%
75 mg single dose, Day 1 3 hours, mean (SD)
  pERK Signal, % Inhibition: 82.7 (10.42) %
75 mg single dose, Day 1 3 hours, median
  pERK Signal, % Inhibition: 86.8%
75 mg single dose, Day 1 12 hours, mean (SD)
  pERK Signal, % Inhibition: 52.2 (6.53) %
75 mg single dose, Day 1 12 hours, median
  pERK Signal, % Inhibition: 51.3%
75 mg single dose, Day 1 24 hours, mean (SD)
  pERK Signal, % Inhibition: 33.6 (4.73) %
75 mg single dose, Day 1 24 hours, median
  pERK Signal, % Inhibition: 33.6%
300 mg QD, Day 10, 12 hours post-last dose
  median percent change in pERK relative to baseline: −95.7%
300 mg QD, Day 10, 24 hours post last dose
  median percent change in pERK relative to baseline: −91.6%
300 mg single dose, 3 hours post-dose
  median change in pERK relative to baseline: −95.6%
300 mg single dose, 12 hours post-dose
  median change in pERK relative to baseline: −76.6%
300 mg single dose, Day 1 1 hour, mean (SD)
  pERK Signal, % Inhibition: 32.2 (35.11) %
300 mg single dose, Day 1 1 hour, median
  pERK Signal, % Inhibition: 29.1%
300 mg single dose, Day 1 3 hours, mean (SD)
  pERK Signal, % Inhibition: 93.4 (5.08) %
300 mg single dose, Day 1 3 hours, median
  pERK Signal, % Inhibition: 95.6%
300 mg single dose, Day 1 12 hours, mean (SD)
  pERK Signal, % Inhibition: 76.0 (7.04) %
300 mg single dose, Day 1 12 hours, median
  pERK Signal, % Inhibition: 76.7%
300 mg single dose, Day 1 24 hours, mean (SD)
  pERK Signal, % Inhibition: 66.4 (2.19) %
300 mg single dose, Day 1 24 hours, median
  pERK Signal, % Inhibition: 65.3%
600 mg BID, Day 10, 12 hours post-last dose
  median percent change in pERK relative to baseline: −100.2%
600 mg BID, Day 10, 24 hours post last dose
  median percent change in pERK relative to baseline: −101.5%
900 mg QD, Day 10, 12 hours post-last dose
  median percent change in pERK relative to baseline: −96.7%
900 mg QD, Day 10, 24 hours post last dose
  median percent change in pERK relative to baseline: −98.5%
900 mg single dose, 3 hours post-dose
  median change in pERK relative to baseline: −99.9%
900 mg single dose, 12 hours post-dose
  median change in pERK relative to baseline: −92.1%
900 mg single dose, Day 1 1 hour, mean (SD)
  pERK Signal, % Inhibition: 74.5 (38.94) %
900 mg single dose, Day 1 1 hour, median
  pERK Signal, % Inhibition: 97.9%
900 mg single dose, Day 1 3 hours, mean (SD)
  pERK Signal, % Inhibition: 99.8 (2.98) %
900 mg single dose, Day 1 12 hours, mean (SD)
  pERK Signal, % Inhibition: 92.7 (3.10) %
900 mg single dose, Day 1 12 hours, median
  pERK Signal, % Inhibition: 92.1%
900 mg single dose, Day 1 24 hours, mean (SD)
  pERK Signal, % Inhibition: 83.6 (7.00) %
900 mg single dose, Day 1 24 hours, median
  pERK Signal, % Inhibition: 85.8%
1500 mg single dose, 3 hours post-dose
  median change in pERK relative to baseline: −99%
1500 mg single dose, 12 hours post-dose
  median change in pERK relative to baseline: −96.3%
1500 mg single dose, Day 1 1 hour, mean (SD)
  pERK Signal, % Inhibition: 74.8 (45.62) %
1500 mg single dose, Day 1 1 hour, median
  pERK Signal, % Inhibition: 97.3%
1500 mg single dose, Day 1 3 hours, mean (SD)
  pERK Signal, % Inhibition: 92.8 (16.61) %
1500 mg single dose, Day 1 3 hours, median
  pERK Signal, % Inhibition: 99.0%
1500 mg single dose, Day 1 12 hours, mean (SD)
  pERK Signal, % Inhibition: 93.0 (6.35) %
1500 mg single dose, Day 1 12 hours, median
  pERK Signal, % Inhibition: 96.3%
1500 mg single dose, Day 1 24 hours, mean (SD)
  pERK Signal, % Inhibition: 94.4 (2.50) %
1500 mg single dose, Day 1 24 hours, median
  pERK Signal, % Inhibition: 94.2%
Day 10 of multiple doses, post-last dose
  time of maximum PD effect: 2 to 4 h
Day 1 1 hour, mean (SD)
  inhibition at 75 mg: 47.9%
Day 1 1 hour, median
  inhibition at 75 mg: 44.9%
Day 1 3 hours, mean (SD)
  inhibition at 75 mg: 67.5%
Day 1 3 hours, median
  inhibition at 75 mg: 79.6%
Day 1 12 hours, mean (SD)
  inhibition at 75 mg: 26.1%
Day 1 12 hours, median
  inhibition at 75 mg: 32.4%
Day 10 1 hour, mean (SD)
  inhibition at 75 mg: 62.2%
Day 10 1 hour, median
  inhibition at 75 mg: 62.7%
Day 10 3 hours, mean (SD)
  inhibition at 75 mg: 85.4%
Day 10 3 hours, median
  inhibition at 75 mg: 88.3%
Day 10 12 hours, mean (SD)
  inhibition at 75 mg: 43.5%
Day 10 12 hours, median
  inhibition at 75 mg: 48.3%
Day 10 24 hours, mean (SD)
  inhibition at 75 mg: 12.6%
Day 10 24 hours, median
  inhibition at 75 mg: 39.8%
